Patent US12012408B2, “Purine compounds and method for the treatment of cancer” (THE ROYAL INSTITUTION FOR THE ADVANCEMENT OF …, priority 2018, dated 2024)

What was measured:
[1] = test system: breast cancer cell lines MDA-MB-231, BT20, MDA-MD468, 4T1, MCF-7, SKBR3; test: Colony formation assay (long-term cell viability); format: cell-based; details: MDA-MB-231, BT20, MDA-MD468, 4T1, MCF-7 (ER+, PR+), SKBR3 (Her2+); FIG. 1B
Procedure: The long-term effects of SLLN-15 on tumor cell growth were assessed using the colony formation assay. Cells were trypsinized and plated in triplicate wells in 12-well plate (500 cells/well). After six hours of incubation, cells were treated with the indicated concentrations of SLLN-15 or DMSO. 7 days after the cells plated and treated, they were washed and stained with a mixture of 0.05% w/v crystal violet and 6% v/v glutaraldehyde, and the colonies >100 μm in diameter were counted using a colony counter (Oxford Optronix Gelcount, Inc., Milton Park, Abingdon, UK).

[2] = test system: breast cancer stem-like cells (BCSCs), ALDHhigh and CD24low/CD44high; test: Anti-stemness activity in breast cancer stem-like cells; format: cell-based
Excerpt: (§1) Breast cancer stem-like cells (BCSCs), heterogeneously subsisting as CD24low/CD44high and ALDHhigh subpopulations, are enriched in aggressive breast cancer subtypes and believed to be responsible for driving metastatic colonization. Despite evidence of a clinical association between BCSC and poor prognosis, effective therapeutic means to target this cell population is lacking. We identified SLLN-15 as a compound with selective anti-sternness activity across a panel of cell lines expressing ALDHhigh and CD24low/CD44high markers, including MDA-MB-231, SUM-149PT, BT-20, SKBR3, 4T1 and several anaplastic thyroid cell lines. […] In summary, our data foster that targeting regulatory networks driving sternness represent important therapeutic targets for treating metastatic breast disease.

In vivo tolerability = test: In vivo tolerability; set-up: species or system mice; details: administered intraperitoneally
Excerpt: as §1

[3] = test system: Akt/mTOR pathway in MDA-MB-231 and BT-20 cells; test: Western blot of the Akt/mTOR pathway; format: cell-based; details: FIG. 4A
Procedure: (§2) Sub-confluent cells were washed with PBS, lysed in RIPA buffer (50 mM Tris-HCl at pH7.5, 150 mM sodium chloride, 1% tritonX-100, 0.1% SDS, 2 mM EDTA and 25 mM sodium fluoride) supplemented with 1 mM PMSF and protease inhibitor cocktail (Roche) for 10 min on ice and centrifuged (13,000 rpm at 4° C. for 20 min) to separate cell lysate. Cell lysate (50 μg protein, as measured by the Bradford protein assay) was then added with SDS sample buffer (Tris at pH 6.8, 20% glycerol, 5% SDS, bromophenol blue and β-mercaptoethanol) and boiled for 5 min. Samples were then resolved through 13% SDS-PAGE gels, transferred to nitrocellulose membrane, blotted with specific first antibodies at different dilution in cold room overnight, and then amplified with horseradish peroxidase-conjugated secondary antibodies for 1 hour in room temperature and enhanced by chemiluminescence detection system.
The PI3K/Akt/mTOR pathway is a well-established pathway that is frequently activated in cancer cells and acts as a key negative regulator of autophagy (Schmelzle T et al. TOR, a central controller of cell growth Cell 2000; 103:253-62; Shi J et al. IL10 inhibits starvation-induced autophagy in hypertrophic scar fibroblasts via cross talk between the IL10-IL10R-STAT3 and IL10-AKT-mTOR pathways Cell Death Dis 2016; 7:e2133). […]

[4] = test system: autophagy (LC3) in MDA-MB-231 and BT-20 cells; test: Autophagy markers: LC3 western blot, LC3 puncta immunofluorescence, mCherry-GFP-LC3 flux; format: cell-based
Procedure: as §2
Cells were grown on 18-mm cover glass, placed in 6-well culture plate for 24 hours, rinsed in PBS, fixed with 4% paraformaldehyde/PBS for 10 min, washed twice in PBS with 0.2% TritonX-100, blocked in PBS with 0.2% Triton X-100 containing 1% BSA (Bioshop) and incubated with primary antibodies overnight at 4° C. (all in 1/100 diluted in blocking solution). The cells were washed with PBS containing 0.2% TritonX-100 and subsequently incubated with Alexa Fluor 488-labelled, Alexa Fluor 594-labelled, or Alexa Fluor 647-labelled secondary antibodies (all were used at 1/500 dilution in blocking solution) for 1 hour in room temperature. The nuclei were stained with DAPI (0.1 μg/ml) for 5 min before mounted with aqueous mounting medium. Cells were imaged using WaveFX spinning disk confocal microscope system (Quorum Technologies INC.). Images shown are representative of three independent experiments.
In order to determine whether SLLN-15 affects autophagy in triple-negative breast cancer cells, we first investigated its effect on the formation of autophagosomes by detecting the conversion of LC3-I to lipidated LC3-II and the distribution of endogenous LC3 puncta, both classic markers of autophagy regulation (Klionsky D J et al. Guidelines for the use and interpretation of assays for monitoring autophagy (3rd edition) Autophagy 2016; 12:1-222). […] In order to visualize the induction of autophagy by SLLN-15, we then used transmission electron microscopy.
Distinguishing between autophagy inducers and inhibitors is a delicate task, since both cause a build-up of LC3-II and LC3-positive puncta (Mizushima N, et al. Methods in mammalian autophagy research Cell 2010; 140:313-26). Therefore, to further determine the role of SLLN-15 on autophagy, we next investigated its impact on autophagic flux using a tandem monomeric mCherry-GFP-tagged LC3. […] SLLN-15-induced autophagic flux was further examined in the presence or absence of the autophagosome-lysosome fusion inhibitor, chloroquine (CQ) (Mizushima N, et al. Methods in mammalian autophagy research Cell 2010; 140:313-26). […] This observation was further confirmed by detecting the number of LC3 puncta in SLLN-15-treated cells, as compared to SLLN-15 combined with CQ (FIG. 3D).

[5] = test system: MDA-MB-231 and BT-20 cells; test: Propidium iodide staining and flow cytometry of DNA content; format: cell-based; details: treatment for 24 hours; FIG. 6C
Procedure: Cells were seeded into six-well plates and treated with the indicated concentration of SLLN-15 for 24 hours. After harvesting, cells were fixed in 80% methanol at −20° C. overnight. The fixed cells were washed twice with cold phosphate-buffered saline (PBS), incubated for 1 hour with 0.1% Triton X-100 and 0.5 μg/ml RNase A, and then stained with propidium iodide (PI) (Sigma) at a final concentration of 10 μg/ml in the dark at 4° C. until analysis. The fluorescent signal was detected through the FL-2 channel using FACSCalibur flow cytometry (Becton Dickson), and the proportion of DNA in various phases was analyzed using FCS Express version 3.0 (De novo Software, Glendale, California, USA)

In the case of `c1nc2nc(Nc3ccc(N4CC[Se]CC4)cc3)nc(N[C@H]3CC[Se]C3)c2[nH]1` [SLLN-15], the colony formation abilities [1] is reported as “equally inhibit the colony formation abilities”, the centrosomes clustering ([2]; FIGS. 8A and 8B) is reported as “interferes with centrosomes clustering” and the cell locomotion ([2]; MDA-MB-231, sorted BCSC subpopulation, concurrent inhibition of focal adhesion kinase signaling) is reported as “induced loss of cell locomotion”. For the same compound, the “BCSC-marker expression, tumorspheres formation, STAT3 activation, mitotic spindle assembly” value ([2]; SLLN-15-treated cells) was “reduced BCSC-marker expression, tumorspheres formation, STAT3 activation and defective mitotic spindle assembly”, the tolerability (In vivo tolerability) was “well-tolerated” and the “phosphorylation levels of Akt, mTOR, p70S6K, S6 and 4EBP1” value [3] was “decreased phosphorylation levels”. For the same compound, the “expression level of p62/SQSTM1, Beclin1, Atg5 and Atg7” value ([4]; FIG. S2) was “no changes in their expression levels were observed”, the “autophagic flux, mCherry-GFP-tagged LC3” value ([4]; MDA-MB-231 and BT-20 cells, FIGS. 3A and B) was “increased formation of yellow fluorescence (autophagosomes) and red fluorescence (autophagolysosomes)” and the LC3-II/LC3-I ratio ([4]; SLLN-15 combined with chloroquine (CQ), compared to SLLN-15 alone, FIG. 3C) was “enhanced LC3-II/LC3-I ratio”. The LC3-II/I ratio ([4]; combination of SLLN-15 with 3-methyladenine (3-MA), FIG. 5C) was “significantly decreases LC3-II/I ratio”, the “LC3-II conversion and LC3 puncta” value ([4]; dose-dependent, FIGS. 2A and B) was “increased LC3-II conversion and LC3 puncta” and the “apoptosis (sub-G1 phase)” value [5] was “no obvious apoptosis”. For the same compound, the “cells arrested in G2/M phase and polyploidy (>4N)” value [5] was “significantly higher percentage”.
